PMC4773758, “Small Molecule Inhibited Parathyroid Hormone Mediated cAMP Response by N–Terminal Peptide Binding” (Scientific Reports, 2016)

Columns and labels:
[1] = biological target: T1, PTH(1–84) (Homo sapiens, UniProt P01270); assay: Fluorescence quenching titration with PTH(1–84); type: binding
T1 construct: SUMO (N, cleaved yes); His-tag (C); made in house; host or cells: E. coli BL21 codon+
T1 sequence (P01270 32-115): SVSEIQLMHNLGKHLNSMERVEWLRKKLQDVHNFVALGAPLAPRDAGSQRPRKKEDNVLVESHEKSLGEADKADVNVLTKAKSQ
Description: (§1) The natural form of parathyroid hormone comprises 84 residues, however, PTH(1–34) is sufficient for receptor activation. PTH contains one tryptophan residue at position 23. Thus it can be used as a highly sensitive fluorescent probe for the analysis of ligand binding by fluorescence spectroscopy. PTH is composed of structured sections mainly from positions 1–37, whereas the C–terminal part is largely unstructured. […] In order to establish the binding a titration experiment was carried out where the PTH(1–34) concentration was kept constant and the concentration of the Zn complex was varied.
(§2) The fluorescence quenching behavior was analyzed according to the equation given in the experimental section. […] In order to evaluate the interaction at the C–terminal part of the PTH and its role in binding, full length PTH(1–84) was taken and its binding was established.
(§3) Fluorescence titrations were carried out on a JASCO FP6500. The samples were excited at 280 nm wavelength and the emission spectra were recorded in the range between 290 nm to 450 nm. Experiments were carried out in 10 mM BisTris, 300 mM Na2SO4, 0.02% NaN3, pH 7.2 using a 1 cm path length quartz cell. The concentration of PTH(1–34), PTH(1–84) and nECD-PTH1R used in the titration experiments were 7.4 μM, 8.1 μM and 5 μM, respectively. In a typical titration experiment, 4 μM of Zn complex or 9-anthracenemethanol was added and spectra were recorded after each addition. Zn complex or 9-anthracenemethanol in buffer was used as blank titration and these spectral traces were subtracted from the main titration. The Zn complex or 9-anthracenemethanol was dissolved in dimethyl sulfoxide and further diluted for experiments. The final concentration of DMSO was <1% in any experiment.
(§4) Fluorescence data were analyzed according to the following equation:
(§5) with P = (P0 / (V0 + L))V0 and L1 = (L0 / (V0 + L))L and Q – fluorescence intensity, P – protein concentration, L – ligand concentration, V – volume, n – binding sites and 0 – indicates start point.

[2] = test system: PTH(1–84) induced cAMP in HEK 293 cells expressing hPTH1R; assay: cAMP accumulation assay, compound pre-incubated with PTH(1–84); type: cell-based, Human
Description: NMR spectroscopy identified that the Zn complex interacts with the N–terminal part of the peptide hormone. The binding region from residues 1–37 of PTH(84) is important for recognition, interaction with the extracellular loops and trans–membrane helices of the receptor and bringing about activation of the later. There are two principal signal transduction pathways involving the G protein–coupled receptors: the cAMP signal pathway and the phosphatidylinositol signal pathway. Parathyroid hormone is involved in the cAMP pathway for its biological regulation. Because binding of the Zn complex was at the N–terminal part of PTH, it is interesting to investigate the cAMP response towards its receptor in the presence of the Zn complex. Therefore PTH(1–34) and PTH(1–84) induced cAMP accumulation was measured in stable HEK 293 cell lines expressing recombinant PTH1R[33]. A cAMP generation assay was carried out in a Zn complex concentration dependent manner, keeping the cells and peptide hormone concentrations constant. PTH response without Zn complex was considered as 100% cAMP response. The peptide hormones were exposed to Zn complex for 15 minutes to allow for complex formation and subsequently cAMP generation was studied.
(§6) HEK 293 cells stably expressing hPTH1R were used for the cAMP accumulation assay following the previously reported procedure. The reaction was carried out at 37 °C and fluorescence measurements were taken using a VICTOR X4 2030 plate reader (PerkinElmer Life and Analytical Sciences). A fixed amount of 0.01 μM peptide hormones and 4 × 10^3 cells per well were used to monitor the cAMP response. The Zn complex or 9-anthracenemethanol was diluted form 0.1 μM to 100 μM and incubated for 15 minutes with the peptide hormone before addition of HEK 293 cells. All experiments were performed in triplicate and repeated independently three times. The maximum cAMP response were calculated as a percentage of the maximal response of PTH(1–34) or PTH(1–84). The effect of Zn complex or 9-anthracenemethanol on receptor was evaluated by incubating these with the cells for 15 minutes followed by washing with buffer. These treated cells were added to the reaction mixture containing untreated PTH(1–84) as described above.

[3] = test system: PTH1R in HEK 293 cells; assay: cAMP assay, compound pre-incubated with cells followed by PTH(1–84); type: cell-based, Human; conditions: compound pre-incubated with the cells, then PTH(1–84)
Description: (§7) The cAMP generation was also analyzed to see the effect of the Zn complex on the receptor itself. Here, the Zn complex was pre-incubated with the cells followed by addition of PTH(1–84). […] In another control experiment cAMP generation was also studied by incubating the 9-anthracenemethanol with the peptide (Figure S9) or directly with the cells (grey bars in Figure S7). […] Additionally, inhibition of cAMP response or cell toxicity was also not observed up to 100 μM of Zn–perchlorate (Figure S10).
as §6, with “All experiments were performed in triplicate and repeated independently three times.” left out, “These treated cells were added to the reaction mixture containing untreated PTH(1–84) as described above.” left out

[4] = biological target: T1, PTH(1–84); assay: NMR 1H–15N HSQC titration with 15N–PTH(1–84); type: binding; conditions: pH 5.3, 25 °C
Description: Preferential binding at residue-level resolution was further investigated by choosing full length ^15N PTH(1–84) to see whether or not the C–terminal region is involved in the Zn complex interaction. […] These NMR spectra indicate that the N–terminal domain of PTH (1–84) binds to the Zn complex whereas the C–terminus part remains solvent exposed and flexible enough to result in observable resonances. […] Histidine 63 is the only exception in the C–terminal part of PTH(1–84) sensing complex formation.
The spectra were recorded at the concentration of 50 μM of peptide hormones. Subsequently, titration was carried out with the addition of 0.5 μl of 10 mM Zn complex until there was no further change in NMR intensity observed. The spectrum corresponding to the 1:4 complex formations was used for the analysis. For the 9-anthracenemethanol titration experiment 20 μM of PTH was used. A titration was carried out and the 1:4 complex of PTH:9-anthracenemethanol was analyzed in detail. The spectra were corrected for the dilution factor. The previously determined NMR assignments of PTH resonances were used[24][63][64]. The spectra were recorded in the 10 mM BisTris, 300 mM Na2SO4, 0.02% NaN3, pH 5.3, with a Bruker 800 MHz Avance III spectrometer equipped with a CP–TCI cryoprobe at 25 °C. Spectra were processed using the programs NMRPipe and NMR Draw.

[5] = test system: HEK 293 cells; assay: Cell viability, MTT assay; type: cell-based, Human; conditions: up to 100 μM, MTT after 3h
Description: as §7
Figure S10: (a) cAMP response and (b) cell viability against Zn–perchlorate. Cell viability was tested after 3h using MTT assay.

[6] = Water solubility; type: physicochemical; conditions: in the absence of the metal
Description: As GPCRs are involved in many diseases, they are targets for approximately 40% of all human modern medicinal drugs. However, these drugs target only a small fraction (about 10%) of known GPCRs[37]. Within the context of receptors including GPCRs, typically available drug molecules for pharmacological applications directly target the receptors. However, literature is limited with regards to molecules which bind to the agonist to modify its receptor activating function. A potential class of molecules for this purpose could be organic/coordination/mixed–ligand complexes. In mixed–ligand complexes one metal ion can replace another metal ion bearing the original skeletal system. A metal replacement can lead to suppressed or negligible biological responses. […] In principle, Zn(II) is less toxic than Cu(II) and it is redox silent therefore, this metal was chosen in exchange of Cu(II).

[7] = set-up: method as in PMID 21709916; conditions: cited from earlier work
[8] = test system: cancer cells; set-up: method as in PMID 21709916; conditions: broad range of cancer cells; cited from earlier work
[9] = biological target: T2, PTH(1–34) (Homo sapiens, UniProt P01270); assay: Fluorescence quenching titration with PTH(1–34); type: binding
T2 construct: Human PTH(1–34) and PTH(1–84) were purified as previously reported; SUMO (N, cleaved yes); His-tag (C); made in house; host or cells: E. coli BL21 codon+
T2 sequence (P01270 32-65 limits assumed): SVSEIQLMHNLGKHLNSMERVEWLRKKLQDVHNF
Description: as §1, §2, §3, §4, §5

[10] = biological target: T2, PTH(1–34); assay: ITC with PTH(1–34); type: binding; conditions: 25 °C
Description: (§8) ITC is a well suited method to evaluate protein-ligand interaction. The interaction of the Zn complex with PTH(1–34) and PTH(1–84) was evaluated by ITC at 25 °C. Zn complex binding was exothermic in nature for both the peptides (Fig. 3b and Figure S4). Data fitting gave n values of 2.28 ± 0.13 and 1.93 ± 0.04 for PTH(1–34) and PTH(1–84), respectively. […] The enthalpic gain counterbalances the unfavorable loss in entropy of the system upon complex binding.
(§9) The calorimetric titrations were performed at 25 °C with a MicroCal VPITC isothermal titration calorimeter. Small aliquots (7 μl) of the Zn complex were added to a solution of the respective peptide in the calorimeter cell. Successive additions were separated by a 300 second interval to allow the resulting peak from peptide Zn complex interaction to return to the baseline. All of the studies were carried out in 10 mM BisTris, 300 mM Na2SO4, pH 7.2.

[11] = biological target: T1, PTH(1–84); assay: ITC with PTH(1–84); type: binding; conditions: 25 °C
Description: as §8, §9

[12] = test system: PTH(1–34) induced cAMP in HEK 293 cells expressing hPTH1R; assay: cAMP accumulation assay, compound pre-incubated with PTH(1–34); type: cell-based, Human; conditions: PTH(1–34) 0.01 μM, 15 min pre-incubation with peptide
Description: NMR spectroscopy identified that the Zn complex interacts with the N–terminal part of the peptide hormone. The binding region from residues 1–37 of PTH(84) is important for recognition, interaction with the extracellular loops and trans–membrane helices of the receptor and bringing about activation of the later. There are two principal signal transduction pathways involving the G protein–coupled receptors: the cAMP signal pathway and the phosphatidylinositol signal pathway. Parathyroid hormone is involved in the cAMP pathway for its biological regulation. […] Therefore PTH(1–34) and PTH(1–84) induced cAMP accumulation was measured in stable HEK 293 cell lines expressing recombinant PTH1R[33]. […]
HEK 293 cells stably expressing hPTH1R were used for the cAMP accumulation assay following the previously reported procedure. The reaction was carried out at 37 °C and fluorescence measurements were taken using a VICTOR X4 2030 plate reader (PerkinElmer Life and Analytical Sciences). […] The maximum cAMP response were calculated as a percentage of the maximal response of PTH(1–34) or PTH(1–84). The effect of Zn complex or 9-anthracenemethanol on receptor was evaluated by incubating these with the cells for 15 minutes followed by washing with buffer. […]

OCc1c2ccccc2cc2ccccc12 [9-anthracenemethanol, reference compound]
Kd ([1]; fluorescence titration against PTH(1–84)): 3520 ± 380 µM | suppression of intracellular cAMP generation ([2]; compound incubated with the peptide PTH(1–84)): significant suppression of intracellular cAMP generation was not observed | suppression of cAMP generation [3]: significant suppression of intracellular cAMP generation was not observed | change in NMR cross peaks / intensity of PTH(1–84) [4]: no residue specific NMR intensity loss

[O-][Cl+3]([O-])([O-])[O-].[O-][Cl+3]([O-])([O-])[O-].[Zn+2] [Zn–perchlorate, reference compound]
change in fluorescence intensity ([1]; up to 200 μM, PTH(1–84)): did not show any significant change | inhibition of cAMP response ([2]; up to 100 μM): not observed | change in NMR cross peaks / intensity of PTH(1–84) [4]: did not show a significant change in NMR cross peaks | cell toxicity [5]: not observed

c1ccc(-c2cc(-c3c4ccccc4cc4ccccc34)cc(-c3ccccn3)n2)nc1 [anthracenyl terpyridine]
water solubility [6]: water insoluble

Cu(II) complex of anthracenyl terpyridine [reference compound]
nuclease activity [7]: showed nuclease and antiprolifirative activity | antiproliferative activity [8]: showed nuclease and antiprolifirative activity

Zn(II) complex of anthracenyl terpyridine [Zn complex]
reduced fluorescence intensity at the end of the titration ([9]; 76 μM of Zn complex, PTH(1–34)): ~ 86% | CF50 (concentration required for 50% quenching of fluorescence intensity) ([9]; PTH(1–34)): 21.46 ± 0.5 µM | stoichiometry (numbers of binding sites with equal affinities) ([9]; fluorescence quenching, PTH(1–34)): 1.9 | Kd ([9]; fluorescence quenching, PTH(1–34) 7.4 μM, pH 7.2): 27 ± 1.8 µM | reduced fluorescence intensity at the end of the titration ([1]; 76 μM of Zn complex, PTH(1–84)): ~ 75% | CF50 (concentration required for 50% quenching of fluorescence intensity) ([1]; PTH(1–84)): 31.8 ± 0.8 µM | stoichiometry ([1]; fluorescence quenching, PTH(1–84)): 2.0 | Kd ([1]; fluorescence quenching, PTH(1–84) 8.1 μM, pH 7.2): 34 ± 1.7 µM | Kd [10]: 55.06 ± 0.06 µM | n (ITC) [10]: 2.28 ± 0.13 | ∆H (ITC) [10]: -5.9 ± 0.1 kcal/mol | ∆S (ITC) [10]: −5.37 cal mol^−1K^−1 | Kd [11]: 54.1 ± 0.08 µM | n (ITC) [11]: 1.93 ± 0.04 | ∆H (ITC) [11]: -11.25 ± 0.3 kcal/mol | ∆S (ITC) [11]: −7.15 cal mol^−1K^−1 | concentration for complete suppression of the cAMP response [12]: ~ 20 μM | IC50 ([12]; read-out: concentration at which 50% reduced activity (cAMP response) was observed): 2 µM | concentration for complete suppression of the cAMP response ([2]; PTH(1–84) 0.01 μM, 15 min pre-incubation with peptide): ~ 20 μM | IC50 ([2]; PTH(1–84) 0.01 μM, 15 min pre-incubation with peptide, read-out: concentration at which 50% reduced activity (cAMP response) was observed): 2 µM | suppression of cAMP generation [3]: did not show a significant suppression | change in NMR cross peaks / intensity of PTH(1–84) [4]: binds to N–terminal residues | nuclease activity [7]: did not show nuclease or antiprolifirative activities | antiproliferative activity [8]: did not show nuclease or antiprolifirative activities
